From PMC10700596 (Nature Communications, 2023)

Tests used:
Assay in all cases: biochemical
Format in all cases: binding
Conditions in all cases: 10000 nM; read-out: Percent Control
[1] = biological target: ABL1(T315I)-phosphorylated (Homo sapiens, UniProt P00519, T315I)
[2] = biological target: ACVR1B (Homo sapiens, UniProt P36896)
Excerpt: (§1) . […] This panel includes several adverse drug reaction receptors such as the serotonin receptor 5HT2b, M1 and M2 muscarinic receptors and adrenergic receptors. […]. page 7:
(§2) Supplementary Figure 7: Non-GPCR off-target screening for 74. a)-e) Dose-response curves of 74 at […]
(§3) proliferator-activated receptor gamma (PPARγ, Eurofins item G124). Data in a)-e) and g)-i) represent two technical replicates. Source data are provided as a Source Data file.
(§4) (1 picture or pasted object on this page, not shown here)

[3] = biological target: AKT1 (Homo sapiens, UniProt P31749)
AKT1, sequence (P31749 whole entry): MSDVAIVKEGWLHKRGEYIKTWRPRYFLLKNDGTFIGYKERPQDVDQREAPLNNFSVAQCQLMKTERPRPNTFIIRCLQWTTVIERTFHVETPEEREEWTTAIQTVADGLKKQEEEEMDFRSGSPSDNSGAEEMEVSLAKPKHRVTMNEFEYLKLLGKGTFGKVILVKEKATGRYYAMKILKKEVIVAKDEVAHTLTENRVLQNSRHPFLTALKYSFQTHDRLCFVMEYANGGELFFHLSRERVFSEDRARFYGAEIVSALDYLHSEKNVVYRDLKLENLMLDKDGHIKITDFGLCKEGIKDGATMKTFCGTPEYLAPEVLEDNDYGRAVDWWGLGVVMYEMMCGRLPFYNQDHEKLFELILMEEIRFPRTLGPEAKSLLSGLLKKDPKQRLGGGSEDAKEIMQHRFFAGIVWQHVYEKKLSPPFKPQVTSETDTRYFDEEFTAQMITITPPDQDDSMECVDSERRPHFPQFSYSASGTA
Excerpt: as §1, §2, §3, §4

[4] = biological target: BTK (Homo sapiens, UniProt Q06187)
Excerpt: as §1, §2, §3, §4

[5] = biological target: CDK11 (Homo sapiens, UniProt Q9BWU1)
CDK11, sequence (Q9BWU1 whole entry): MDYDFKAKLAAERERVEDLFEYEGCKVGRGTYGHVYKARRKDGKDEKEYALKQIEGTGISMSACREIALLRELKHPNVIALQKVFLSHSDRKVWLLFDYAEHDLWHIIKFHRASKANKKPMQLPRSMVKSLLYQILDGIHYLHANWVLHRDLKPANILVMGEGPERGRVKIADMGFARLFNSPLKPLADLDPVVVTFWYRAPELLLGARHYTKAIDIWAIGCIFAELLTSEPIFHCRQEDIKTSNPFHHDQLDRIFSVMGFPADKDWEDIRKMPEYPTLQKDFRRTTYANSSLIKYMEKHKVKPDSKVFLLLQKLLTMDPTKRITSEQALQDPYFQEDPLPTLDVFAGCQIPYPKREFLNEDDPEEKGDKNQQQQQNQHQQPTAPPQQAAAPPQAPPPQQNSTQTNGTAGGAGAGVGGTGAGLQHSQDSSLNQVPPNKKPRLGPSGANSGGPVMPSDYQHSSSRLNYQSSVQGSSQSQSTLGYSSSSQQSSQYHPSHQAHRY
Excerpt: as §1, §2, §3, §4

[6] = biological target: CDK7 (Homo sapiens, UniProt P50613)
CDK7, sequence (P50613 whole entry): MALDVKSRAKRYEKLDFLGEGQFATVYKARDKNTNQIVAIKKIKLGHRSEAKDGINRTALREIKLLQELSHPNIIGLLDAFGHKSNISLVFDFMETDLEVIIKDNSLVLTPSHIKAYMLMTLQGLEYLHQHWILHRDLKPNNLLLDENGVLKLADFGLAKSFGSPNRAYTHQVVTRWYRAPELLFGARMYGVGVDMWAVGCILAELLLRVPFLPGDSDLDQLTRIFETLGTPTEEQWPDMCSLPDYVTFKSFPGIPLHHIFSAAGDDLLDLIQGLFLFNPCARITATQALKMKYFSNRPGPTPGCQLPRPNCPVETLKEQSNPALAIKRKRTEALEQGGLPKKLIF
Excerpt: as §1, §2, §3, §4

[7] = biological target: DCAMKL1 (Homo sapiens, UniProt O15075)
DCAMKL1, sequence (O15075 whole entry): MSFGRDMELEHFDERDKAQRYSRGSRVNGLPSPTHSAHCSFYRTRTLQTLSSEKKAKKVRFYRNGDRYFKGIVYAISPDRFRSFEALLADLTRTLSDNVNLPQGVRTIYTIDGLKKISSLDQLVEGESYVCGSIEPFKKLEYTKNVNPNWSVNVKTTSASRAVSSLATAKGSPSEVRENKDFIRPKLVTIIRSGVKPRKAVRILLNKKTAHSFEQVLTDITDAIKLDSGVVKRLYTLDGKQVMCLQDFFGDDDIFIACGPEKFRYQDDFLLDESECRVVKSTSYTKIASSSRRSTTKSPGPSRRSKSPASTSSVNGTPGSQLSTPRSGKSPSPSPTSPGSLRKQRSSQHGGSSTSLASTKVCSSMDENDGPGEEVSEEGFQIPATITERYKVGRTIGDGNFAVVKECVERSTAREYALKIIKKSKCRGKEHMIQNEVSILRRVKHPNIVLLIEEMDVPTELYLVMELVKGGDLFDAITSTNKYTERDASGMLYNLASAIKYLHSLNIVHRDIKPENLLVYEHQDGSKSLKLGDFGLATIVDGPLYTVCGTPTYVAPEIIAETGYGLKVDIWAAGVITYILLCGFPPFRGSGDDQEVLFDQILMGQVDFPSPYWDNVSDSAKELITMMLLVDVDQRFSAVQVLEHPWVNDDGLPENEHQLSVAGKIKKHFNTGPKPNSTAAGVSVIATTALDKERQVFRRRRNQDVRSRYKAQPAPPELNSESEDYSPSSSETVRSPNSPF
Excerpt: as §1, §2, §3, §4

[8] = biological target: FGFR2 (Homo sapiens, UniProt P21802)
Excerpt: as §1, §2, §3, §4

[9] = biological target: IKK-alpha (Homo sapiens, UniProt O15111)
Excerpt: as §1, §2, §3, §4

[10] = biological target: PDPK1 (Homo sapiens, UniProt O15530)
PDPK1, sequence (O15530 whole entry): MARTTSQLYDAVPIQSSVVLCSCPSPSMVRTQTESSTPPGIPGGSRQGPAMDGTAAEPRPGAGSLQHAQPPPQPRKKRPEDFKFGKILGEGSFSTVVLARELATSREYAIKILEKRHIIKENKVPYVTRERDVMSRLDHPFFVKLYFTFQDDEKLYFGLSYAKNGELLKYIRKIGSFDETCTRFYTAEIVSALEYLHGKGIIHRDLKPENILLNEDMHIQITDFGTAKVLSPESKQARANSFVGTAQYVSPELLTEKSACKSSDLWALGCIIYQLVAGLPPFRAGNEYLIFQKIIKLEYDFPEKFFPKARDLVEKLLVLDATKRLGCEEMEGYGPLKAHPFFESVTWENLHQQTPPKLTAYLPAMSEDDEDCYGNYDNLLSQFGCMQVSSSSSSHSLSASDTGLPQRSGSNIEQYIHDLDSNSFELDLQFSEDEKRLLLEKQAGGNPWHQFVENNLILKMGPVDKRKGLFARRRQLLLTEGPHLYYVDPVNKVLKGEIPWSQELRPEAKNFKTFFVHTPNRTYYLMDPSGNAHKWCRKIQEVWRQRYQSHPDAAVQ
Excerpt: as §1, §2, §3, §4

[11] = biological target: PIM1 (Homo sapiens, UniProt P11309)
PIM1, sequence (P11309 whole entry): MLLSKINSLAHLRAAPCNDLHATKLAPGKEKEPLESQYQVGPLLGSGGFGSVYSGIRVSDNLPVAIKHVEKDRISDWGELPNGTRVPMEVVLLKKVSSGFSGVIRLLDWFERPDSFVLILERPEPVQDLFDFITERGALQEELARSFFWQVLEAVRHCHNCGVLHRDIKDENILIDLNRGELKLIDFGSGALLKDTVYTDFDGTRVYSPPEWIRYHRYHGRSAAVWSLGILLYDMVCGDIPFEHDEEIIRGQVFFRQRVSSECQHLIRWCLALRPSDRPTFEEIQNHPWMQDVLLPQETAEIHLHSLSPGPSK
Excerpt: as §1, §2, §3, §4

[12] = biological target: SRC (Homo sapiens, UniProt P12931)
SRC, sequence (P12931 whole entry): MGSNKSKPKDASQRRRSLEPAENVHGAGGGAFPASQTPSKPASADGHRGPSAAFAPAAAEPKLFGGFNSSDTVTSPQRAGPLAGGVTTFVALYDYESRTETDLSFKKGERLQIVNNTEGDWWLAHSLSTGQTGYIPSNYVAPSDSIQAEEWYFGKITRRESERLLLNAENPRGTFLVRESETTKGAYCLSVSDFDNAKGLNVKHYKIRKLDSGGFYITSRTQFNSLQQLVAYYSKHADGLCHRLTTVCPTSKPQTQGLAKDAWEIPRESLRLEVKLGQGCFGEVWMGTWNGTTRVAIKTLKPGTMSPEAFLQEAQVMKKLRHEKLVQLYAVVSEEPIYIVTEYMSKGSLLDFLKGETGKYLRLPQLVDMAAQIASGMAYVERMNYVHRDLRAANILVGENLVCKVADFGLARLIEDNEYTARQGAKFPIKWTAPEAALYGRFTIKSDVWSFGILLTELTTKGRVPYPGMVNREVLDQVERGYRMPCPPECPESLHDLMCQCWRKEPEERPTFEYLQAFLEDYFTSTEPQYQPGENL
Excerpt: as §1, §2, §3, §4

[13] = biological target: TRKA (Homo sapiens, UniProt P04629)
TRKA, sequence (P04629 33-796): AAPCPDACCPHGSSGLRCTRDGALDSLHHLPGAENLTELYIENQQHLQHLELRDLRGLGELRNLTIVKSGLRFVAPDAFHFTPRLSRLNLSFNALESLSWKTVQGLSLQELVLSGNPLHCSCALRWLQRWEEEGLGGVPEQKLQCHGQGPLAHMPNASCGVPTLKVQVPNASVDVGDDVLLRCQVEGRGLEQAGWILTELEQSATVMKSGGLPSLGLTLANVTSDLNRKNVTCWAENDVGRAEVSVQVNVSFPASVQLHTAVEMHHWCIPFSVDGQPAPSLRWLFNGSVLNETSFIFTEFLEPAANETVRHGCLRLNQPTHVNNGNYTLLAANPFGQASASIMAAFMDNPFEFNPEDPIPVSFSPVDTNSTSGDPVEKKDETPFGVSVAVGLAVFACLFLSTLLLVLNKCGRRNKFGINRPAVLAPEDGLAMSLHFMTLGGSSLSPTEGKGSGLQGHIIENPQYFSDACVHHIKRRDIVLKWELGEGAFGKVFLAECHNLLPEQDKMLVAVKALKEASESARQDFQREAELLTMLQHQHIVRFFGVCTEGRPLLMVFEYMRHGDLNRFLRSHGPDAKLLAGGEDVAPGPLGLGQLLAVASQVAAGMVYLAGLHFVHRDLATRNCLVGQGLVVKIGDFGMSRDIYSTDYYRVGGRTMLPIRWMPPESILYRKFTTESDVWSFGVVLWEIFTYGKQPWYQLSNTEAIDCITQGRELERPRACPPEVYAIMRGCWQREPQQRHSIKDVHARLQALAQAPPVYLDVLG
Excerpt: as §1, §2, §3, §4

[14] = biological target: ULK2 (Homo sapiens, UniProt Q8IYT8)
Excerpt: as §1, §2, §3, §4

[15] = biological target: YANK3 (Homo sapiens, UniProt Q86UX6)
YANK3, sequence (Q86UX6 whole entry): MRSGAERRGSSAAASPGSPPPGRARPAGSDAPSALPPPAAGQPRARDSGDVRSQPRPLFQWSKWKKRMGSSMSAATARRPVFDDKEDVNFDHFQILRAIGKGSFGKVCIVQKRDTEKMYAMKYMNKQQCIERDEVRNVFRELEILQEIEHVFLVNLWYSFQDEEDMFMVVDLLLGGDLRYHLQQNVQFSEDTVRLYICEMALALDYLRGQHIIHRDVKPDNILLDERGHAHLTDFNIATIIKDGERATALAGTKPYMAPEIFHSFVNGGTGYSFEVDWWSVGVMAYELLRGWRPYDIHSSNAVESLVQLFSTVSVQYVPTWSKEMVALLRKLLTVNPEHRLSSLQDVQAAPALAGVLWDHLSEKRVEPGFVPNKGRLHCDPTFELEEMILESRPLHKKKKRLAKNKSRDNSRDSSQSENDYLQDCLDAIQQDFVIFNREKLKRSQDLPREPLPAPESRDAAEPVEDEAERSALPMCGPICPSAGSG
Excerpt: as §1, §2, §3, §4

O=C(O)C1CCC2(CC1)CC(Nc1ncnc3[nH]c4c(F)cccc4c13)C2 (stereo not drawn) [Compound 74, OC(=O)C1CCC2(CC(C2)NC=3N=CN=C4NC=5C(F)=CC=CC5C34)CC1]
remaining activity at 10 µM [1]: 82% | remaining activity at 10 µM [2]: 55% | remaining activity at 10 µM [3]: 100% | remaining activity at 10 µM [4]: 67% | remaining activity at 10 µM [5]: 46% | remaining activity at 10 µM [6]: 62% | remaining activity at 10 µM [7]: 78% | remaining activity at 10 µM [8]: 71% | remaining activity at 10 µM [9]: 42% | remaining activity at 10 µM [10]: 64% | remaining activity at 10 µM [11]: 72% | remaining activity at 10 µM [12]: 88% | remaining activity at 10 µM [13]: 11% | remaining activity at 10 µM [14]: 54% | remaining activity at 10 µM [15]: 62%
